The data set in a line: physchem. In outline: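 Solubility at pH 7.4 determined by stepwise addition of 200 mM phosphate buffer in 100 μL increments to 3 mg peptide, mixing briefly each time, until no insoluble material remained, then measured by liquid chromatography.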
[1] abbreviates: pH 7.4, aqueous buffer, pH 7.4 Phosphate Buffer - Solubility, 200 mM Phosphate buffer pH 7.4.

Starred links: 1 amine or outer side, 2 acyl side, 3 side chain; linkers in the order of their positions; H or OH if unused. Positions of bridges follow the written chain, without caps; N, C: chain ends. Non-standard residues stand in square brackets, D forms with d. Residues, ends and D or L forms follow the SMILES beside them. Groups on a side chain read outwards from the residue. Chains are numbered I, II in the order given. *: point of attachment. C20 diacid = O=C(O)CCCCCCCCCCCCCCCCCCC(=O)*; C18 diacid = O=C(O)CCCCCCCCCCCCCCCCC(=O)*; γGlu = O=C(O)[C@H](CCC(=O)[*:2])N[*:1]; NMeY = CN[C@@H](Cc1ccc(O)cc1)C(=O)O; AEEA = NCCOCCOCC(=O)O; Aib = CC(C)(N)C(=O)O

Experimental findings from patent US20230143604A1, “QW DOSING OF GIP RECEPTOR AGONIST PEPTIDE COMPOUNDS AND USES THEREOF” (TAKEDA PHARMACEUTICAL COMPANY LIMITED, priority 2020, published 2023) are described below.

By solubility is commonly meant the concentration that dissolves in the medium under given conditions. Low values mean a poorly soluble substance, high ones a readily soluble substance.

As to `CC[C@H](C)[C@H](NC(=O)[C@H](CO)NC(=O)[C@H](Cc1ccc(O)cc1)NC(=O)[C@H](CC(=O)O)NC(=O)[C@H](CO)NC(=O)[C@@H](NC(=O)[C@H](Cc1ccccc1)NC(=O)[C@@H](NC(=O)CNC(=O)[C@H](CCC(=O)O)NC(=O)C(C)(C)NC(=O)[C@H](Cc1ccc(O)cc1)NC)[C@@H](C)O)[C@@H](C)CC)C(=O)N[C@@H](C)C(=O)N[C@@H](CC(C)C)C(=O)N[C@@H](CC(=O)O)C(=O)N[C@@H](CCCNC(=N)N)C(=O)NC(C)(C)C(=O)N[C@@H](C)C(=O)N[C@@H](CCC(N)=O)C(=O)NC(C)(C)C(=O)N[C@@H](CCCCNC(=O)COCCOCCNC(=O)COCCOCCNC(=O)CC[C@H](NC(=O)CC[C@H](NC(=O)CCCCCCCCCCCCCCCCC(=O)O)C(=O)O)C(=O)O)C(=O)N[C@@H](Cc1ccccc1)C(=O)N[C@H](C(=O)N[C@@H](CC(N)=O)C(=O)N[C@@H](Cc1c[nH]c2ccccc12)C(=O)N[C@@H](CC(C)C)C(=O)N[C@@H](CC(C)C)C(=O)N[C@@H](C)C(=O)N[C@@H](CCC(N)=O)C(=O)N[C@@H](CCCNC(=N)N)C(=O)NCC(=O)NCC(=O)NCC(=O)NCC(=O)N[C@@H](CO)C(N)=O)C(C)C` [Compound 21] (H-[NMeY][Aib]EGTFISDYSIALDR[Aib]AQ[Aib]K([AEEA-AEEA-γGlu-γGlu-C18 diacid])FVNWLLAQRGGGGS-NH2), the solubility (pH 7.4) was not below 15 mg/mL and the solubility (pH 7.4, aqueous buffer) is not below 30 mg/mL.

The compound `CC[C@H](C)[C@H](NC(=O)[C@H](CO)NC(=O)[C@H](Cc1ccc(O)cc1)NC(=O)[C@H](CC(=O)O)NC(=O)[C@H](CO)NC(=O)[C@@H](NC(=O)[C@H](Cc1ccccc1)NC(=O)[C@@H](NC(=O)CNC(=O)[C@H](CCC(=O)O)NC(=O)C(C)(C)NC(=O)[C@H](Cc1ccc(O)cc1)NC)[C@@H](C)O)[C@@H](C)CC)C(=O)N[C@@H](C)C(=O)N[C@@H](CC(C)C)C(=O)N[C@@H](CC(=O)O)C(=O)N[C@@H](CCCNC(=N)N)C(=O)N[C@H](C(=O)N[C@@H](Cc1c[nH]cn1)C(=O)N[C@@H](CCC(N)=O)C(=O)NC(C)(C)C(=O)N[C@@H](CC(N)=O)C(=O)N[C@@H](Cc1ccccc1)C(=O)N[C@H](C(=O)N[C@@H](CC(N)=O)C(=O)N[C@@H](Cc1c[nH]c2ccccc12)C(=O)N[C@@H](CC(C)C)C(=O)N[C@@H](CC(C)C)C(=O)N[C@@H](C)C(=O)N[C@@H](CCC(N)=O)C(=O)N[C@@H](CCCCNC(=O)COCCOCCNC(=O)COCCOCCNC(=O)CC[C@H](NC(=O)CCCCCCCCCCCCCCCCC(=O)O)C(=O)O)C(=O)O)C(C)C)[C@@H](C)CC` [Compound 248] (H-[NMeY][Aib]EGTFISDYSIALDRIHQ[Aib]NFVNWLLAQK([AEEA-AEEA-γGlu-C18 diacid])-OH; C-terminus assumed) returned a solubility (pH 7.4, aqueous buffer) not below 6.8 mg/mL.

“I: H-[NMeY][Aib]EGTFISDYSIALDR[Aib]KQ[Aib]DFVNWLLAQSPSSGAPPPS-OH / II: {C18 diacid}-PAPAPGG (amide I:18-II:C) [Compound 102]” returned a solubility under setting [1] not below 60 mg/mL and a solubility (pH 7.4, solubility in phosphate buffer at pH 7.4, 200 mM phosphate buffer pH 7.4) not below 15 mg/mL.

The compound `CC[C@H](C)[C@H](NC(=O)[C@H](CO)NC(=O)[C@H](Cc1ccc(O)cc1)NC(=O)[C@H](CC(=O)O)NC(=O)[C@H](CO)NC(=O)[C@@H](NC(=O)[C@H](Cc1ccccc1)NC(=O)[C@@H](NC(=O)CNC(=O)[C@H](CCC(=O)O)NC(=O)C(C)(C)NC(=O)[C@H](Cc1ccc(O)cc1)NC)[C@@H](C)O)[C@@H](C)CC)C(=O)N[C@@H](C)C(=O)N[C@@H](CC(C)C)C(=O)N[C@@H](CC(=O)O)C(=O)N[C@@H](CCCNC(=N)N)C(=O)NC(C)(C)C(=O)N[C@@H](CCCCNC(=O)COCCOCCNC(=O)COCCOCCNC(=O)CC[C@H](NC(=O)CC[C@H](NC(=O)CCCCCCCCCCCCCCCCCCC(=O)O)C(=O)O)C(=O)O)C(=O)N[C@@H](CCC(N)=O)C(=O)NC(C)(C)C(=O)N[C@@H](CC(N)=O)C(=O)N[C@@H](Cc1ccccc1)C(=O)N[C@H](C(=O)N[C@@H](CC(N)=O)C(=O)N[C@@H](Cc1c[nH]c2ccccc12)C(=O)N[C@@H](CC(C)C)C(=O)N[C@@H](CC(C)C)C(=O)N[C@@H](C)C(=O)N[C@@H](CCC(N)=O)C(=O)N[C@@H](CO)C(=O)N1CCC[C@H]1C(=O)N[C@@H](CO)C(=O)N[C@@H](CO)C(=O)NCC(=O)N[C@@H](C)C(=O)N1CCC[C@H]1C(=O)N1CCC[C@H]1C(=O)N1CCC[C@H]1C(=O)N[C@@H](CO)C(N)=O)C(C)C` [Compound 99] (H-[NMeY][Aib]EGTFISDYSIALDR[Aib]K([AEEA-AEEA-γGlu-γGlu-C20 diacid])Q[Aib]NFVNWLLAQSPSSGAPPPS-NH2) registered a solubility under setting [1] not below 60 mg/mL.

For `CC[C@H](C)[C@H](NC(=O)[C@H](Cc1ccccc1)NC(=O)[C@@H](NC(=O)CNC(=O)[C@H](CCC(=O)O)NC(=O)C(C)(C)NC(=O)[C@@H](N)Cc1ccc(O)cc1)[C@@H](C)O)C(=O)N[C@@H](CO)C(=O)N[C@@H](CC(=O)O)C(=O)N[C@@H](Cc1ccc(O)cc1)C(=O)N[C@@H](CO)C(=O)N[C@H](C(=O)NC(C)(C)C(=O)N[C@@H](CC(C)C)C(=O)N[C@@H](CC(=O)O)C(=O)N[C@@H](CCCNC(=N)N)C(=O)NC(C)(C)C(=O)N[C@@H](C)C(=O)N[C@@H](CCC(N)=O)C(=O)NC(C)(C)C(=O)N[C@@H](CCCCNC(=O)COCCOCCNC(=O)COCCOCCNC(=O)CC[C@H](NC(=O)CC[C@H](NC(=O)CCCCCCCCCCCCCCCCC(=O)O)C(=O)O)C(=O)O)C(=O)N[C@@H](Cc1ccccc1)C(=O)N[C@H](C(=O)N[C@@H](CC(N)=O)C(=O)N[C@@H](Cc1c[nH]c2ccccc12)C(=O)N[C@@H](CC(C)C)C(=O)N[C@@H](CC(C)C)C(=O)N[C@@H](C)C(=O)N[C@@H](CCC(N)=O)C(=O)N[C@@H](CCCNC(=N)N)C(=O)NCC(=O)O)C(C)C)[C@@H](C)CC` [Compound 141] (H-Y[Aib]EGTFISDYSI[Aib]LDR[Aib]AQ[Aib]K([AEEA-AEEA-γGlu-γGlu-C18 diacid])FVNWLLAQRG-OH), the solubility runs as follows: (pH 7.4) not below 15 mg/mL; (pH 7.4, aqueous buffer) not below 30 mg/mL.

For `CC[C@H](C)[C@H](NC(=O)[C@H](CCCCN)NC(=O)[C@H](CC(=O)O)NC(=O)[C@H](CC(C)C)NC(=O)[C@H](C)NC(=O)[C@@H](NC(=O)[C@H](CO)NC(=O)[C@H](Cc1ccc(O)cc1)NC(=O)[C@H](CC(=O)O)NC(=O)[C@H](CO)NC(=O)[C@@H](NC(=O)[C@H](Cc1ccccc1)NC(=O)[C@@H](NC(=O)CNC(=O)[C@H](CCC(=O)O)NC(=O)C(C)(C)NC(=O)[C@H](Cc1ccc(O)cc1)NC)[C@@H](C)O)[C@@H](C)CC)[C@@H](C)CC)C(=O)N[C@@H](C)C(=O)N[C@@H](CCC(N)=O)C(=O)NC(C)(C)C(=O)N[C@@H](CCCCNC(=O)COCCOCCNC(=O)COCCOCCNC(=O)CC[C@H](NC(=O)CC[C@H](NC(=O)CCCCCCCCCCCCCCCCC(=O)O)C(=O)O)C(=O)O)C(=O)N[C@@H](Cc1ccccc1)C(=O)N[C@H](C(=O)N[C@@H](CC(N)=O)C(=O)N[C@@H](Cc1c[nH]c2ccccc12)C(=O)N[C@@H](CC(C)C)C(=O)N[C@@H](CC(C)C)C(=O)N[C@@H](C)C(=O)N[C@@H](CCC(N)=O)C(=O)N[C@@H](CCCNC(=N)N)C(=O)NCC(=O)O)C(C)C` [Compound 175] (H-[NMeY][Aib]EGTFISDYSIALDKIAQ[Aib]K([AEEA-AEEA-γGlu-γGlu-C18 diacid])FVNWLLAQRG-OH), the solubility reads like this: (pH 7.4) not below 15 mg/mL; (pH 7.4, aqueous buffer) not below 30 mg/mL.
